Laboratory results from ChEMBL document CHEMBL3751753, “Synthesis and biological evaluation of 4-[(benzimidazol-1-yl) methyl]biphenyl-2-amides as dual angiotensin II and endothelin A receptor antagonists” (Medchemcomm, 2015).
Calls of active or inactive are those of the source. The calls are words filed in the database; no cut-off is given here.

Assays:
[1] = biological target: T1, Type-1 angiotensin II receptor (Homo sapiens, UniProt P30556); assay: Displacement of 125I-labelled Sar1-Ile8-angiotensin-2 from human AT1 receptor
T1 sequence (P30556 whole entry): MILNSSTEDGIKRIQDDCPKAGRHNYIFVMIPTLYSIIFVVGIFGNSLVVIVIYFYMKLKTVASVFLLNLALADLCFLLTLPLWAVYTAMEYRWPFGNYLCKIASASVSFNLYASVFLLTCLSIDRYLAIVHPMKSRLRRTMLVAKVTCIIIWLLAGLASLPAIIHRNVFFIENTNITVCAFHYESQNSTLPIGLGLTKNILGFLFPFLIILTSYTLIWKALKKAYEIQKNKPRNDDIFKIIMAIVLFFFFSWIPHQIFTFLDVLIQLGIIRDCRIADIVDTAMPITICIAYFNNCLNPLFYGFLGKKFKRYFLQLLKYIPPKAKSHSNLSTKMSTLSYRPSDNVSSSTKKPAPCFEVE

[2] = biological target: T2, Endothelin-1 receptor (Homo sapiens, UniProt P25101); assay: Displacement of 125I-labelled endothelin-1 from human ETA receptor expressed in CHOK1 cell membranes; parameters: species or system CHO-K1
T2 sequence (P25101 whole entry): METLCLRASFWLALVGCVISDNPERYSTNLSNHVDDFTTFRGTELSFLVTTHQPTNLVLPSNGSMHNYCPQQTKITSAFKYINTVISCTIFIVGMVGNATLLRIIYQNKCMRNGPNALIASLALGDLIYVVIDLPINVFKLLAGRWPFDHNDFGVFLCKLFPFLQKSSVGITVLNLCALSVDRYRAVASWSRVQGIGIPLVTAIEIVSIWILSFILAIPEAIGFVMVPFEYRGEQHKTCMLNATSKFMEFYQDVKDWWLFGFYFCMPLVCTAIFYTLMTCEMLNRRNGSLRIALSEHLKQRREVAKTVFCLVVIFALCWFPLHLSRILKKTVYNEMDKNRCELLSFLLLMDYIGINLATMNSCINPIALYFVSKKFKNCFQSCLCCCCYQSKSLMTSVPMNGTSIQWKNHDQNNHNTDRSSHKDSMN

[3] = system: Rattus norvegicus; assay: Antihypertensive activity in spontaneous hypertensive rat assessed as mean blood pressure at 20 mg/kg, po after 24 hrs; assay type: functional, organism-based
[4] = system: Rattus norvegicus; assay: Antihypertensive activity in spontaneous hypertensive rat assessed as heart rate at 20 mg/kg, po after 1 to 24 hrs; assay type: functional, organism-based
[5] = system: Rattus norvegicus; assay: Antihypertensive activity in spontaneous hypertensive rat assessed as mean blood pressure at 20 mg/kg, po after 4 hrs; assay type: functional
[6] = system: Rattus norvegicus; assay: Antihypertensive activity in spontaneous hypertensive rat assessed as time duration of lowering mean blood pressure >20 mmHg at 20 mg/kg, po; assay type: functional
[7] = system: Rattus norvegicus; assay: Antihypertensive activity in spontaneous hypertensive rat assessed as mean blood pressure at 20 mg/kg, po after 6 hrs; assay type: functional

## CCCNC(=O)c1cc(C)c2nc(CCC)n(Cc3ccc(-c4ccccc4C(=O)Nc4nnn[nH]4)cc3)c2c1
[1]
  IC50: 363 nM
[2]
  IC50: > 20000 nM

## CCCc1nc2c(C)cc(C(=O)NCc3cccc(OC)c3)cc2n1Cc1ccc(-c2ccccc2C(=O)Nc2nnn[nH]2)cc1
[1]
  IC50: 53.9 nM
[2]
  IC50: 625 nM

## CCCCNC(=O)c1cc(C)c2nc(CCC)n(Cc3ccc(-c4ccccc4C(=O)Nc4nnn[nH]4)cc3)c2c1
[1]
  IC50: 439 nM
[2]
  IC50: > 20000 nM

## CCCCC1=NC2(CCCC2)C(=O)N1Cc1ccc(-c2ccccc2-c2nnn[nH]2)cc1 [IRBESARTAN]
[3]
  Activity: Active
[4]
  Activity: Active
[5]
  Activity: 20 mmHg
[6]
  Time: 1 h

## CCCc1nc2c(C)cc(C(=O)NCCc3ccc(OC)cc3)cc2n1Cc1ccc(-c2ccccc2C(=O)Nc2nnn[nH]2)cc1
[1]
  IC50: 87.8 nM
[2]
  IC50: 13000 nM

## CCCc1nc2c(C)cc(C(=O)NCCc3ccccc3)cc2n1Cc1ccc(-c2ccccc2C(=O)Nc2nnn[nH]2)cc1
[1]
  IC50: 3.9 nM
[3]
  Activity: Active
[4]
  Activity: Active
[6]
  Time: 4 h
[7]
  Activity: 24 mmHg
[2]
  IC50: 126 nM

## CCCc1nc2c(C)cc(C(=O)NCCN3CCN(C)CC3)cc2n1Cc1ccc(-c2ccccc2C(=O)Nc2nnn[nH]2)cc1
[1]
  IC50: 53.5 nM
[2]
  IC50: 9100 nM

## CCCc1nc2c(C)cc(C(=O)NCCc3ccc(OC)c(OC)c3)cc2n1Cc1ccc(-c2ccccc2C(=O)Nc2nnn[nH]2)cc1
[1]
  IC50: 93 nM
[2]
  IC50: > 20000 nM

## CCCc1nc2c(C)cc(C(=O)NC(C)C)cc2n1Cc1ccc(-c2ccccc2C(=O)Nc2nnn[nH]2)cc1
[1]
  IC50: 161 nM
[2]
  IC50: > 20000 nM

## CCCc1nc2c(C)cc(C(=O)NCCc3cccc(OC)c3)cc2n1Cc1ccc(-c2ccccc2C(=O)Nc2nnn[nH]2)cc1
[1]
  IC50: 36.9 nM
[2]
  IC50: > 20000 nM

## CCCc1nc2c(C)cc(C(=O)Nc3ccccc3OC)cc2n1Cc1ccc(-c2ccccc2C(=O)Nc2nnn[nH]2)cc1
[1]
  IC50: 347 nM
[2]
  IC50: 886 nM

## CCCc1nc2c(C)cc(C(=O)NCCN3CCOCC3)cc2n1Cc1ccc(-c2ccccc2C(=O)Nc2nnn[nH]2)cc1
[1]
  IC50: 44 nM
[2]
  IC50: 165 nM

## CCCc1nc2c(C)cc(C(=O)NCc3ccccc3)cc2n1Cc1ccc(-c2ccccc2C(=O)Nc2nnn[nH]2)cc1
[1]
  IC50: 82 nM
[2]
  IC50: 10 nM

## CCCc1nc2c(C)cc(C(=O)NCCN3CCCCC3)cc2n1Cc1ccc(-c2ccccc2C(=O)Nc2nnn[nH]2)cc1
[1]
  IC50: 67.5 nM
[2]
  IC50: > 20000 nM

## CCCc1nc2c(C)cc(C(=O)NCCc3ccccc3OC)cc2n1Cc1ccc(-c2ccccc2C(=O)Nc2nnn[nH]2)cc1
[1]
  IC50: 26.1 nM
[2]
  IC50: 7000 nM

## CCCc1nc2c(C)cc(C(=O)NCCN3CCCC3)cc2n1Cc1ccc(-c2ccccc2C(=O)Nc2nnn[nH]2)cc1
[1]
  IC50: 69.4 nM
[2]
  IC50: 7100 nM

## CCCc1nc2c(C)cc(C(=O)NCc3ccc(OC)c(OC)c3)cc2n1Cc1ccc(-c2ccccc2C(=O)Nc2nnn[nH]2)cc1
[1]
  IC50: 32.9 nM
[2]
  IC50: 10000 nM

## CCCc1nc2c(C)cc(C(=O)NCCc3ccccc3F)cc2n1Cc1ccc(-c2ccccc2C(=O)Nc2nnn[nH]2)cc1
[1]
  IC50: 90 nM
[2]
  IC50: 11000 nM

## CCCc1nc2c(C)cc(C(=O)NCc3ccc(OC)cc3)cc2n1Cc1ccc(-c2ccccc2C(=O)Nc2nnn[nH]2)cc1
[1]
  IC50: 550 nM
[2]
  IC50: > 20000 nM

## CCCc1nc2c(C)cc(C(=O)NCCc3ccc(F)cc3)cc2n1Cc1ccc(-c2ccccc2C(=O)Nc2nnn[nH]2)cc1
[1]
  IC50: 140 nM
[2]
  IC50: > 20000 nM

## CCCc1nc2c(C)cc(C(=O)NCc3ccccc3OC)cc2n1Cc1ccc(-c2ccccc2C(=O)Nc2nnn[nH]2)cc1
[1]
  IC50: 73.3 nM
[2]
  IC50: 7200 nM

## CCCc1nc2c(C)cc(C(=O)NCCc3cc(OC)ccc3OC)cc2n1Cc1ccc(-c2ccccc2C(=O)Nc2nnn[nH]2)cc1
[1]
  IC50: 30.7 nM
[2]
  IC50: > 20000 nM

## CCCc1nc2c(C)cc(C(=O)Nc3ccccc3)cc2n1Cc1ccc(-c2ccccc2C(=O)Nc2nnn[nH]2)cc1
[1]
  IC50: 73.7 nM
[2]
  IC50: 14000 nM

## CCCc1nc2c(C)cc(C(=O)NC(C)(C)C)cc2n1Cc1ccc(-c2ccccc2C(=O)Nc2nnn[nH]2)cc1
[1]
  IC50: 390 nM
[2]
  IC50: > 20000 nM
